Measurements: US5302514A, “Maltooligoside derivative, reagent for determining α-amylase activity containing the same as effective ingredient and a process for determining the α-amylase activity using same” (Kikkoman Corporation, priority 1991, dated 1994)

Tests used:
[1] = molecular target: T1, amylase derived from human pancreatic juice (human P type α-amylase) (Homo sapiens, UniProt P04746); experiment: Km value, P type α-amylase; type: biochemical; details: pH 7.0, 37° C., Lineweaver-Burk
T1 sequence (P04746 16-511): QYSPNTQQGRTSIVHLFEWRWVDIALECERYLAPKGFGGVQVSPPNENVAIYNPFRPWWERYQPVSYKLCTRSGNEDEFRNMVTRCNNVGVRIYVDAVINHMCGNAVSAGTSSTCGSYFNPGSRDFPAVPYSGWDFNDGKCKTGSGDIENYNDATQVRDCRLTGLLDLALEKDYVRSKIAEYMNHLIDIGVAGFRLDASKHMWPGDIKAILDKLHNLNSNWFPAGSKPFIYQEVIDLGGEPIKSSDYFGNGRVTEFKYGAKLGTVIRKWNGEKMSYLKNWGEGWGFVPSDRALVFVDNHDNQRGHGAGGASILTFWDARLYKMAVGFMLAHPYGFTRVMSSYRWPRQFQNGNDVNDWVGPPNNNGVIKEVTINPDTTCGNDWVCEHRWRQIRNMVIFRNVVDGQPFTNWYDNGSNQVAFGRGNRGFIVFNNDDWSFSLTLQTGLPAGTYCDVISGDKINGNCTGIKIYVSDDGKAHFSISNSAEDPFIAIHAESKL
Procedure: Km values, hydrolysis rate, water solubility and the patterns of action in the hydrolysis of the present substrates 2-chloro-4-nitrophenyl 5^5 -eno-4^5 -O-mesyl-β-D-maltopentaoside (EMG5CNP) and 2-chloro-4-nitrophenyl 6^5 -azido-6^5 -deoxy- β-D-maltopentaoside (ADG5CNP) obtained in Example were examined in accordance with the following methods.
Substrate solutions were prepared by dissolving in a 50 mM phosphate buffer (pH=7.0) containing 40 mM NaCl and 2 mM MgCl2 a substrate to 0.16, 0.32, 0.48, 0.64, 0.80 and 0.96 mM, respectively.
The Km value of each substrate solution was obtained by measuring the hydrolysis rate of the substrate in accordance with the same procedure as in the measurement of hydrolysis rate described below and roughly calculating the Lineweaver-Burk's reciprocal plot (see "Tanpaku-Kohso no Jikken-hou", ed. Takeichi Horio & Jinpei Yamashita, Nanko-do, 1981).
Each substrate was dissolved in a 50 mM phosphate buffer (pH=7.0) containing 40 mM NaCl and 2 mM MgCl2 to make three substrate solutions in a concentration of 0.8-1.6 times and three substrate solutions in a concentration of 1.6-3.2 times per the roughly calculated Km value in the aforementioned paragraph (ii).
The Km value was calculated in accordance with the same procedure as in the aforementioned paragraph (ii).
P: amylase derived from human pancreatic juice, […]

[2] = test system: human α-amylase (P:S=1:1); experiment: α-Amylase hydrolysis (increase in absorbance at 400 nm with coupled enzymes); type: biochemical; details: for Increase in absorbance for 2 minutes (corrected by the 0 IU/l of α-amylase activity): substrate solution 3.00 mM, 400 nm, 37° C., pH 7.0; for hydrolysis by α-amylase (in words): as understood from Tables 1 and 2
Procedure: Coupled enzyme solution was prepared by dissolving a commercially available α-glucosidase derived from yeast and a commercially available β-glucosidase derived from almond in a 50 mM phosphate buffer (pH=7.0) containing 40 mM NaCl and 2 mM MgCl2 to a concentration of 117 units/ml and 13 units/ml, respectively. As the commercially available α- and β-glucosidases, those available from Toyobo Co., Ltd. were used.
Standard α-amylase solutions were prepared by dissolving a commercially available human α-amylase (P:S=1:1) in purified water to a concentration of 0, 148, 284, 401 and 525 IU/l, respectively. As the commercially available human α-amylase, Calibzyme.AMY manufactured by International Reagents Corp. was employed. As for the activity of α-amylase, an amount of the enzyme which decomposes 1μ mol of (a commercially available) 2-chloro-4-nitrophenyl β-D-maltopentaoside at 37° C. for one minute was defined as 1 international unit (IU).
The substrate solution (a) was prepared by dissolving 2-chloro-4-nitorphenyl 6^5 -azido-6^5 -deoxy-β-D-maltopentaoside (referred to hereinafter as the substrate of the present invention) obtained in Example 3 in a 50 mM phosphate buffer (pH=7.0) containing 40 mM NaCl and 2 mM MgCl2 to a concentration of 3.00 mM.
The substrate solution (b) was prepared by dissolving 2-chloro-4-nitrophenyl 6^3 -azido-6^3 -deoxy-β-D-maltotrioside (referred to hereinafter as the reference substrate) obtained in the step (1) in a 50 mM phosphate buffer (pH=7.0) containing 40 mM NaCl and 2 mM MgCl2 to a concentration of 3.00 mM.
A coupled enzyme solution was prepared in the same manner as in the step (2) of Example 5.
α-amylase solutions were prepared in the same manner as in the step (3) of Example 5 by dissolving a commercially available human α-amylase (P:S=1:1) in purified water to a concentration of 0, 250 and 500 IU/l, respectively.
The coupled enzyme solution in an amount of 1.0 ml was added with stirring to 250 μl of the α-amylase solution, and the mixture was heated at 37° C. for one minute. Each of the substrate solution in an amount of 2.0 ml was added with stirring to the mixture, and the mixture was heated at 37° C. for 2 minutes before measuring the variation of the absorbance at 400 nm for 2 minutes.
2-chloro-4-nitrophenyl 5^5 -eno-4^5 -O-mesyl-β-D-maltopentaoside (referred to hereinafter as substrate of the present invention) obtained in Example 1 was dissolved in a 50 mM phosphate buffer (pH=7.0) containing 40 mM NaCl and 2 mM MgCl2 to a concentration of 3.00 mM.
2-chloro-4-nitrophenyl 5^3 -eno-4^3 -O-mesyl-β-D-maltotrioside(referred to hereinafter as reference substrate) obtained in the previous step (1) was dissolved in a 50 mM phosphate buffer (pH=7.0) containing 40 mM NaCl an 2 mM MgCl2 to a concentration of 3.00 mM.
α-amylase solutions were prepared in the same manner as in the step (5) of Example 7.
The variations of absorbance were measured in the same manner as in the step (6) of Example 7.

Row | Structure (SMILES) | Km [1] [µM] | Increase in absorbance for 2 minutes (corrected by the 0 IU/l of α-amylase activity) ([2]; Table 2, α-amylase activity 250 IU/l) | Increase in absorbance for 2 minutes (corrected by the 0 IU/l of α-amylase activity) ([2]; Table 2, α-amylase activity 500 IU/l) | hydrolysis by α-amylase (in words) [2] | Increase in absorbance for 2 minutes (corrected by the 0 IU/l of α-amylase activity) ([2]; Table 1, α-amylase activity 250 IU/l) | Increase in absorbance for 2 minutes (corrected by the 0 IU/l of α-amylase activity) ([2]; Table 1, α-amylase activity 500 IU/l)
1 | C=C1O[C@H](O[C@H]2[C@H](O)[C@@H](O)[C@@H](O[C@H]3[C@H](O)[C@@H](O)[C@@H](O[C@H]4[C@H](O)[C@@H](O)[C@@H](O[C@H]5[C@H](O)[C@@H](O)[C@H](Oc6ccc([N+](=O)[O-])cc6Cl)O[C@@H]5CO)O[C@@H]4CO)O[C@@H]3CO)O[C@@H]2CO)[C@H](O)[C@@H](O)[C@@H]1OS(C)(=O)=O [EMG5CNP, 2-chloro-4-nitrophenyl 5^5-eno-4^5 -O-mesyl-β-D-maltopentaoside] | 130 | 0.057 | 0.116 | hydrolyzed extremely smoothly | – | –
2 | [N-]=[N+]=NC[C@H]1O[C@H](O[C@H]2[C@H](O)[C@@H](O)[C@@H](O[C@H]3[C@H](O)[C@@H](O)[C@@H](O[C@H]4[C@H](O)[C@@H](O)[C@@H](O[C@H]5[C@H](O)[C@@H](O)[C@H](Oc6ccc([N+](=O)[O-])cc6Cl)O[C@@H]5CO)O[C@@H]4CO)O[C@@H]3CO)O[C@@H]2CO)[C@H](O)[C@@H](O)[C@@H]1O [ADG5CNP, 2-chloro-4-nitrophenyl 6^5-azido-6^5-deoxy-β-D-maltopentaoside] | 170 | – | – | hydrolyzed satisfactorily | 0.058 | 0.118
